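Method: 48-hour compound exposure of cells in 96-well plates, five concentrations, linear interpolation of endpoints. The concentration for 50% growth inhibition is given as GI50.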 Calls of active or inactive are those of the source. No stated cut-off is given here; in the data, active = GI50 up to about 1.1 µM and inactive = higher.
Tests used:
Assay in all cases: inhibition of tumour cell growth, NCI panel, 48 h
SF-539 = system: SF-539
HCT-15 = system: HCT-15
SK-MEL-28 = system: SK-MEL-28
MDA-MB-231 = system: MDA-MB-231
KM12 = system: KM12
UACC-62 = system: UACC-62
IGROV-1 = system: IGROV-1
SF-268 = system: SF-268
HL-60 = system: HL-60
MOLT-4 = system: MOLT-4
CAKI-1 = system: CAKI-1
SN12C = system: SN12C
HOP-92 = system: HOP-92
OVCAR-3 = system: OVCAR-3
MDA-MB-435 = system: MDA-MB-435
A549 = system: A549
U-251 = system: U-251
NCI/ADR-RES = system: NCI/ADR-RES
A498 = system: A498
SW-620 = system: SW-620

Row | Structure (SMILES) | GI50 (SF-539) | GI50 (HCT-15) [µM] | GI50 (SK-MEL-28) | GI50 (MDA-MB-231) | GI50 (KM12) | GI50 (UACC-62) | GI50 (IGROV-1) | GI50 (SF-268) | GI50 (HL-60) | GI50 (MOLT-4) | GI50 (CAKI-1) | GI50 (SN12C) | GI50 (HOP-92) | GI50 (OVCAR-3) | GI50 (MDA-MB-435) | GI50 (A549) | GI50 (U-251) | GI50 (NCI/ADR-RES) | GI50 (A498) | GI50 (SW-620)
1 | CCN(CC)CCOCCOCC1(c2ccc(Cl)c(Cl)c2)CCCCC1 | 11.2 µM (inactive) | 4.34 | 5.22 µM (inactive) | 10.8 µM (inactive) | 5.06 µM (inactive) | 8.87 µM (inactive) | 8.43 µM (inactive) | 11.8 µM (inactive) | 5.82 µM (inactive) | 4.99 µM (inactive) | 10.1 µM (inactive) | 11.9 µM (inactive) | 6.14 µM (inactive) | 8.67 µM (inactive) | 4 µM (inactive) | 10.9 µM (inactive) | 9.25 µM (inactive) | 11.4 µM (inactive) | 13.1 µM (inactive) | 5.61 µM (inactive)
2 | N=C(N)N/N=C/c1c(-c2cccc([N+](=O)[O-])c2)nc2n1CCS2 | 20 µM (inactive) | 33.1 | 19.8 µM (inactive) | 16.7 µM (inactive) | 18.4 µM (inactive) | 17.9 µM (inactive) | 15.6 µM (inactive) | 19.6 µM (inactive) | 19.1 µM (inactive) | 11.4 µM (inactive) | 31.7 µM (inactive) | 22.7 µM (inactive) | 14.9 µM (inactive) | 30.3 µM (inactive) | 28.2 µM (inactive) | 18.5 µM (inactive) | 14.9 µM (inactive) | 77.6 µM (inactive) | 17 µM (inactive) | 5.45 µM (inactive)
3 | Cc1oncc1/N=C1\C=C(O)C(=O)c2ccccc21 | 4.65 µM (inactive) | 3.72 | 15.4 µM (inactive) | 8.47 µM (inactive) | 6.21 µM (inactive) | 2.99 µM (inactive) | 3.57 µM (inactive) | 10.5 µM (inactive) | 2.26 µM (inactive) | 2.5 µM (inactive) | 9.18 µM (inactive) | 5.73 µM (inactive) | 10.4 µM (inactive) | 1.9 µM (inactive) | 1.92 µM (inactive) | 3.9 µM (inactive) | 5.37 µM (inactive) | 3.85 µM (inactive) | 13.2 µM (inactive) | 4.4 µM (inactive)
4 | Cc1csc2c(=O)n(COCc3ccccc3)c(=O)[nH]c12 | > 100 µM (inactive) | – | > 100 µM (inactive) | > 100 µM (inactive) | > 100 µM (inactive) | – | > 100 µM (inactive) | > 100 µM (inactive) | > 100 µM (inactive) | > 100 µM (inactive) | > 100 µM (inactive) | > 100 µM (inactive) | 40.8 µM (inactive) | > 100 µM (inactive) | > 100 µM (inactive) | > 100 µM (inactive) | > 100 µM (inactive) | > 100 µM (inactive) | > 100 µM (inactive) | > 100 µM (inactive)
5 | Cc1cc(Cc2c(F)c(F)c(Cc3cc(C)no3)c(F)c2F)on1 | 47.6 µM (inactive) | > 100 | > 100 µM (inactive) | 46.6 µM (inactive) | – | > 100 µM (inactive) | > 100 µM (inactive) | 21.7 µM (inactive) | > 100 µM (inactive) | > 100 µM (inactive) | 12.2 µM (inactive) | > 100 µM (inactive) | 29 µM (inactive) | > 100 µM (inactive) | > 100 µM (inactive) | 12.9 µM (inactive) | 64.1 µM (inactive) | > 100 µM (inactive) | > 100 µM (inactive) | –
6 | N#CC12CC3=C(N=C1NC1=C(CCc4ccccc41)C2)c1ccccc1CC3 (stereo not given) | 2.53 µM (inactive) | 1.76 | 4.06 µM (inactive) | 4.16 µM (inactive) | 0.938 µM (active) | 2.82 µM (inactive) | 1.44 µM (inactive) | 3.3 µM (inactive) | 0.323 µM (active) | 1.72 µM (inactive) | 3.8 µM (inactive) | 5.15 µM (inactive) | 2.72 µM (inactive) | 0.538 µM (active) | 0.278 µM (active) | 3.32 µM (inactive) | 1.58 µM (inactive) | 2.97 µM (inactive) | 1.8 µM (inactive) | 0.871 µM (active)
7 | COC[C@@H](/N=C/C(C)(C)C)C(C)C | > 100 µM (inactive) | > 100 | > 100 µM (inactive) | > 100 µM (inactive) | > 100 µM (inactive) | > 100 µM (inactive) | > 100 µM (inactive) | > 100 µM (inactive) | > 100 µM (inactive) | > 100 µM (inactive) | > 100 µM (inactive) | > 100 µM (inactive) | > 100 µM (inactive) | > 100 µM (inactive) | > 100 µM (inactive) | > 100 µM (inactive) | > 100 µM (inactive) | > 100 µM (inactive) | > 100 µM (inactive) | > 100 µM (inactive)
8 | c1cncc(CC2(c3cc4ccccc4[nH]3)OCCO2)c1 | 58.3 µM (inactive) | > 100 | > 100 µM (inactive) | > 100 µM (inactive) | > 100 µM (inactive) | > 100 µM (inactive) | 22.1 µM (inactive) | > 100 µM (inactive) | 37.2 µM (inactive) | – | > 100 µM (inactive) | > 100 µM (inactive) | > 100 µM (inactive) | – | > 100 µM (inactive) | 81.8 µM (inactive) | > 100 µM (inactive) | > 100 µM (inactive) | > 100 µM (inactive) | > 100 µM (inactive)
9 | COc1cc(/C=C2\C(=O)N(c3cccc(Cl)c3)C(c3ccccc3)S2(=O)=O)cc(OC)c1OC (stereo not given) | 43.3 µM (inactive) | 54.3 | 69.2 µM (inactive) | > 100 µM (inactive) | 58.1 µM (inactive) | 32.7 µM (inactive) | – | 55.8 µM (inactive) | 36.4 µM (inactive) | 23.9 µM (inactive) | > 100 µM (inactive) | 72.8 µM (inactive) | 30.6 µM (inactive) | 48.8 µM (inactive) | 30.5 µM (inactive) | 70.8 µM (inactive) | 73.8 µM (inactive) | 38.1 µM (inactive) | > 100 µM (inactive) | 59.7 µM (inactive)
10 | C(/C=N/N=C1NCCN1)=N\N=C1NCCN1 | > 100 µM (inactive) | > 100 | > 100 µM (inactive) | > 100 µM (inactive) | > 100 µM (inactive) | > 100 µM (inactive) | > 100 µM (inactive) | > 100 µM (inactive) | 12.5 µM (inactive) | > 100 µM (inactive) | > 100 µM (inactive) | – | > 100 µM (inactive) | > 100 µM (inactive) | > 100 µM (inactive) | > 100 µM (inactive) | > 100 µM (inactive) | > 100 µM (inactive) | > 100 µM (inactive) | > 100 µM (inactive)
11 | COc1cc2c(cc1OC)C(=O)N(c1ccc(O)cc1)C2 | > 100 µM (inactive) | > 100 | > 100 µM (inactive) | > 100 µM (inactive) | – | > 100 µM (inactive) | > 100 µM (inactive) | > 100 µM (inactive) | > 100 µM (inactive) | > 100 µM (inactive) | > 100 µM (inactive) | > 100 µM (inactive) | > 100 µM (inactive) | > 100 µM (inactive) | > 100 µM (inactive) | > 100 µM (inactive) | > 100 µM (inactive) | > 100 µM (inactive) | > 100 µM (inactive) | > 100 µM (inactive)
12 | O=C1NC(=O)C(COCc2ccccc2)C2=C1SCCC2 (stereo not given) | > 100 µM (inactive) | > 100 | > 100 µM (inactive) | > 100 µM (inactive) | > 100 µM (inactive) | – | > 100 µM (inactive) | > 100 µM (inactive) | > 100 µM (inactive) | > 100 µM (inactive) | > 100 µM (inactive) | – | > 100 µM (inactive) | > 100 µM (inactive) | > 100 µM (inactive) | > 100 µM (inactive) | > 100 µM (inactive) | > 100 µM (inactive) | > 100 µM (inactive) | > 100 µM (inactive)
13 | C/C(=N\O)c1cccc(Nc2nc3ccccc3c3occc23)c1 | 15.5 µM (inactive) | 7.94 | 14.3 µM (inactive) | 11.9 µM (inactive) | 10 µM (inactive) | < 0.01 µM (active) | – | 11.9 µM (inactive) | 20.9 µM (inactive) | 5.96 µM (inactive) | 10.7 µM (inactive) | 15.5 µM (inactive) | 5.3 µM (inactive) | 13.7 µM (inactive) | 10.1 µM (inactive) | 7.33 µM (inactive) | 19.4 µM (inactive) | 13.1 µM (inactive) | 14.8 µM (inactive) | –
14 | CC12OC1(C)C1C(=O)OCC1C2=O (stereo not given) | 32.5 µM (inactive) | 55 | > 100 µM (inactive) | > 100 µM (inactive) | 44.7 µM (inactive) | 99.3 µM (inactive) | 32.4 µM (inactive) | 37.8 µM (inactive) | 20.6 µM (inactive) | – | 29.2 µM (inactive) | 26.7 µM (inactive) | > 100 µM (inactive) | 38.9 µM (inactive) | > 100 µM (inactive) | > 100 µM (inactive) | > 100 µM (inactive) | 51.3 µM (inactive) | > 100 µM (inactive) | 45.9 µM (inactive)
15 | CC(=O)O[C@H]1C[C@H](O[C@H]2[C@@H](O)C[C@H](O[C@H]3[C@@H](O)C[C@H](O[C@H]4CC[C@@]5(C)[C@H](CC[C@@H]6[C@@H]5C[C@@H](O)[C@]5(C)[C@@H](C7=CC(=O)OC7)CC[C@]65O)C4)O[C@@H]3C)O[C@@H]2C)O[C@H](C)[C@H]1O[C@@H]1O[C@H](CO)[C@@H](O)[C@H](O)[C@H]1O [LANATOSIDE C] | 0.0336 µM (active) | 0.0409 | 0.303 µM (active) | 0.372 µM (active) | 0.104 µM (active) | 0.21 µM (active) | 0.0435 µM (active) | 0.0436 µM (active) | 0.0332 µM (active) | 0.018 µM (active) | 0.0336 µM (active) | – | 0.122 µM (active) | 0.041 µM (active) | 0.212 µM (active) | 0.0146 µM (active) | 0.0741 µM (active) | 0.0364 µM (active) | 0.0897 µM (active) | 0.0536 µM (active)

Source: ChEMBL document CHEMBL1201862, “PubChem BioAssay data set” (2004)
